# Data reported in patent US20240150424A1, “DIRECTED CHEMICAL CONJUGATE OF GLUCAGON-LIKE PEPTIDE-2 MUTANT, AND USE THEREOF” (PEG-BIO BIOPHARM CO.,LTD.(CHONGQING), priority 2021, published 2024).
# Starred links: 1 amine or outer side, 2 acyl side, 3 side chain; linkers in the order of their positions; H or OH if unused. Non-standard residues stand in square brackets, D forms with d. Residues, ends and D or L forms follow the SMILES beside them. Groups on a side chain read outwards from the residue. No end group written: not given here. *: point of attachment. C18 diacid = O=C(O)CCCCCCCCCCCCCCCCC(=O)*; γGlu = O=C(O)[C@H](CCC(=O)[*:2])N[*:1]; AEEA = NCCOCCOCC(=O)O; Aib = CC(C)(N)C(=O)O
# Legend:
# [1] = Pharmacokinetic study in rats (ELISA); assay type: in vivo, SD rats
# Protocol: 10 adult SD rats weighing 200-300 g were equally divided into 2 groups, 5 rats each group. PF01 and PF04 were administered subcutaneously at a single dose of 3 mg/Kg, respectively. Serum samples of all rats were collected before administration and 8 h, 24 h, 48 h, 72 h and 96 h after administration, and plasma concentrations were determined by ELISA.
# [2] = Pharmacokinetic study in Cynomolgus macaques (LC-MS/MS, NCA); assay type: in vivo
# Protocol: 4 adult Cynomolgus macaques, half males and half females, were used. PF01 was administered by subcutaneous injection at a single dose of 0.05 mg/Kg. Blood samples were collected before administration and 4 h, 8 h, 12 h, 24 h, 48 h, 72 h, 96 h, 120 h, 192 h and 288 h after administration. The concentrations of PF01 in the samples were determined by LC-MS/MS. The plasma concentration data were analyzed using WinNonlin, a pharmacokinetic data analysis software. […] The t1/2, Cmax, Tmax, AUC, Cl and Vd were calculated using a non-compartmental model (NCA).
# [3] = system: small intestine hyperplasia in minor mice; assay: Test on promoting small intestinal hyperplasia in minor Kunming mice; assay type: in vivo
# Protocol: Forty minor Kunming mice weighing 10 to 20 g were equally divided into […], 10 mice each group. The control group was subcutaneously administered with the placebo once a day for 9 days, the Ted group was subcutaneously administered at 1 mg/Kg once a day for 9 days, and the PF01 group and the PF04 group were subcutaneously administered at 3 mg/Kg once every three days for a total of 3 times. All experimental animals were weighed before administration. On the 10th day after administration, the body weight was weighed, blood was collected, and small intestine length and weight were determined.
# [4] = system: 5-FU-induced diarrhea and intestinal mucosa injury model; assay: Diarrhea and intestinal mucosa injury model caused by 5-FU in rats; assay type: in vivo, SD rats; details: for Number of animals with diarrhea (denominator): 10 rats each group
# Protocol: Forty adult SD rats weighing 200 to 300 g were equally divided into 4 groups, 10 rats each group. A Model group was subcutaneously administered with the placebo once a day for 9 days, a Ted group was subcutaneously administered at 1 mg/Kg once a day for 9 days, and a PF01 group and a PF04 group were subcutaneously administered at 3 mg/Kg once every three days for a total of 3 times. All rats were intraperitoneally injected with 5-FU at 50 mg/Kg once a day on the 4th day to the 6th day. Diarrhea and body weight changes in rats were recorded every day after the first administration of 5-FU. On the 10th day, body weight was weighed, blood was collected, and jejunum was taken for case sections. Diarrhea was identified based on scores, with 0 indicating no diarrhea, 1 indicating mild diarrhea with feces adhering to the anus, 2 indicating moderate diarrhea with feces adhering to the hind legs and tail, 3 indicating severe diarrhea with feces adhering to the front legs and abdomen, and 4 indicating death. In Table 6, the numerator represents the diarrhea score, and the denominator represents the number of animals with diarrhea.
# [5] = cited from earlier work
# [6] = cited from earlier work; remark: listed apart in the source
# [7] = biological target: T1, GLP-2R (Homo sapiens, UniProt O95838); assay: In vitro activity (cAMP) assay of glucagon-like peptide-2 mutants in HEK-293-GLP-2R cells; assay type: cell-based; details: for in vitro activities compared with natural human glucagon-like peptide-2: summary statement
# T1 construct: expressed in transfected cells; host or cells: HEK-293 cells, transfected and screened by Chongqing Paijin Biotechnology Co. Ltd. The receptor gene was constructed by Shanghai Shengbo Biomedical Technology Co. Ltd
# T1 sequence (O95838 1-553): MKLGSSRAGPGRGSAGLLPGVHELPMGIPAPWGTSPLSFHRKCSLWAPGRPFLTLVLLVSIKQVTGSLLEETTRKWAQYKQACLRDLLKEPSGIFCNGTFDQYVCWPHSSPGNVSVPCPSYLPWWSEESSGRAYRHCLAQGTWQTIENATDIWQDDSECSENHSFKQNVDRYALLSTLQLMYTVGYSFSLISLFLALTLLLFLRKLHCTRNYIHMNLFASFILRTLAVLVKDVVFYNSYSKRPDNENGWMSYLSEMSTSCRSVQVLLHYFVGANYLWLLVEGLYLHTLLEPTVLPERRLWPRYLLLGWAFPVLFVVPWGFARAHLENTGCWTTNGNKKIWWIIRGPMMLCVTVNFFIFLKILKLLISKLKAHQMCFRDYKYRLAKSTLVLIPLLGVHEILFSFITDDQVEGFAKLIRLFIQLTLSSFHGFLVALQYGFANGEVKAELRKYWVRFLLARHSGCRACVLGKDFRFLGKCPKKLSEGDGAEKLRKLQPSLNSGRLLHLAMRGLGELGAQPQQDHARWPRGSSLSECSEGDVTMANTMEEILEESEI
# Protocol: HEK-293-GLP-2R cells (HEK-293 cells were purchased from National Collection of Authenticated Cell Cultures, GLP-2R receptor gene sequence was recombinantly constructed by Shanghai Shengbo Biomedical Technology Co. Ltd., and HEK-293-GLP-2R cells were obtained by transfection and screening by Chongqing Paijin Biotechnology Co. Ltd.) were used to determine the in vitro activities of glucagon-like peptide-2 mutants. […] The cells were incubated at 37° C., 5% CO2 for 15 minutes, and then added with a cell lysis buffer. The cell lysates were extracted, and the OD value of cAMP was determined using a cAMP assay kit (RD company).
# [8] = cynomolgus monkey, in vivo, Cynomolgus macaques, sc single dose of 0.05 mg/Kg
# [9] = 10th day, Ted 1 mg/Kg sc once a day for 9 days, PF01/PF04 3 mg/Kg sc once every three days, 3 times
# [10] = 24 h after the administration of 5-FU
# [11] = 48 h after the administration of 5-FU
# [12] = 72 h after the administration of 5-FU
# [13] = 96 h after the administration of 5-FU
molecule,measurement,setting,value
CC[C@H](C)[C@H](NC(=O)[C@H](Cc1ccccc1)NC(=O)[C@H](CC(=O)O)NC(=O)[C@H](CCCNC(=N)N)NC(=O)[C@H](C)NC(=O)[C@H](C)NC(=O)[C@H](CC(C)C)NC(=O)[C@H](CC(N)=O)NC(=O)[C@H](CC(=O)O)NC(=O)[C@H](CC(C)C)NC(=O)[C@@H](NC(=O)[C@@H](NC(=O)[C@H](CC(N)=O)NC(=O)[C@H](CCSC)NC(=O)[C@H](CCC(=O)O)NC(=O)[C@H](CC(=O)O)NC(=O)[C@H](CO)NC(=O)[C@H](Cc1ccccc1)NC(=O)[C@H](CO)NC(=O)CNC(=O)[C@H](CC(=O)O)NC(=O)CNC(=O)[C@@H](N)Cc1c[nH]cn1)[C@@H](C)O)[C@@H](C)CC)C(=O)N[C@@H](CC(N)=O)C(=O)N[C@@H](Cc1c[nH]c2ccccc12)C(=O)N[C@@H](CC(C)C)C(=O)N[C@H](C(=O)N[C@@H](CCC(N)=O)C(=O)N[C@H](C(=O)N[C@@H](CCCNC(=N)N)C(=O)N[C@H](C(=O)N[C@H](C(=O)N[C@@H](CC(=O)O)C(=O)NCC(=O)NCC(=O)NCC(=O)NCC(=O)N[C@@H](CO)C(=O)N[C@@H](CCCCNC(=O)COCCOCCNC(=O)COCCOCCNC(=O)CC[C@H](NC(=O)CCCCCCCCCCCCCCCCC(=O)O)C(=O)O)C(=O)O)[C@@H](C)O)[C@@H](C)CC)[C@@H](C)O)[C@@H](C)CC [PF01] (H-HGDGSFSDEMNTILDNLAARDFINWLIQTRITDGGGGSK([AEEA-AEEA-γGlu-C18 diacid])-OH),Cmax,"[1]; rat, in vivo, rats, sc single dose of 3 mg/Kg",67.5 µg/mL
same,half-life,"[1]; rat, in vivo, rats, sc single dose of 3 mg/Kg, read-out: T1/2 (converted)",1220 min
same,half-life,"[1]; rat, in vivo, summary statement in description, read-out: in vivo half-life in rats (converted)",1260 min
same,Tmax,"[1]; rats, sc single dose of 3 mg/Kg",basically consistent with that of PF04
same,"in vivo half-life, times longer than that of the natural hGLP-2",[2]; based on T1/2 in Cynomolgus macaques,approximately 100 times
same,AUC,[2]; [8],21700 ng·h/mL
same,Cmax,[2]; [8],459 ng/mL
same,Tmax,[2]; [8],12 h
same,half-life,"[2]; cynomolgus monkey, in vivo, Cynomolgus macaques, sc single dose of 0.05 mg/Kg, read-out: T1/2 (average) (converted)",1860 min
same,half-life,"[2]; cynomolgus monkey, in vivo, summary statement in description, read-out: in vivo half-life in cynomolgus monkeys (converted)",1800 min
CC[C@H](C)[C@H](NC(=O)[C@H](Cc1ccccc1)NC(=O)[C@H](CC(=O)O)NC(=O)[C@H](CCCNC(=N)N)NC(=O)[C@H](C)NC(=O)[C@H](C)NC(=O)[C@H](CC(C)C)NC(=O)[C@H](CC(N)=O)NC(=O)[C@H](CC(=O)O)NC(=O)[C@H](CC(C)C)NC(=O)[C@@H](NC(=O)[C@@H](NC(=O)[C@H](CC(N)=O)NC(=O)[C@H](CCSC)NC(=O)[C@H](CCC(=O)O)NC(=O)[C@H](CC(=O)O)NC(=O)[C@H](CO)NC(=O)[C@H](Cc1ccccc1)NC(=O)[C@H](CO)NC(=O)CNC(=O)[C@H](CC(=O)O)NC(=O)CNC(=O)[C@@H](N)Cc1c[nH]cn1)[C@@H](C)O)[C@@H](C)CC)C(=O)N[C@@H](CC(N)=O)C(=O)N[C@@H](Cc1c[nH]c2ccccc12)C(=O)N[C@@H](CC(C)C)C(=O)N[C@H](C(=O)N[C@@H](CCC(N)=O)C(=O)N[C@H](C(=O)N[C@@H](CCCCN)C(=O)N[C@H](C(=O)N[C@H](C(=O)N[C@@H](CC(=O)O)C(=O)O)[C@@H](C)O)[C@@H](C)CC)[C@@H](C)O)[C@@H](C)CC [Teduglutide],Body weight of mice at the end of the experiment,[3]; [9],18.06 ± 0.49 g
same,Serum citrulline content,[3]; [9],14.47 µg/mL
same,Small intestine length,[3]; [9],37.4 cm
same,Small intestine weight,[3]; [9],1.75 g
same,Body weight of mice before administration,"[3]; baseline, before administration",13.32 ± 0.49 g
same,"Comparison of groups in mice body weight, serum citrulline, small intestine length and small intestine weight",[3]; text summary of Table 4,superior to the control group
same,Diarrhea score (numerator),[4]; [10],0/0
same,Number of animals with diarrhea (denominator),[4]; [10],0/0
same,Diarrhea score (numerator),[4]; [11],4/4
same,Number of animals with diarrhea (denominator),[4]; [11],4/4
same,Diarrhea score (numerator),[4]; [12],4
same,Number of animals with diarrhea (denominator),[4]; [12],3
same,Diarrhea score (numerator),[4]; [13],3/3
same,Number of animals with diarrhea (denominator),[4]; [13],3/3
same,Rank of citrulline (CIT) content between groups,"[4]; FIG. 7, before chemotherapy, 48 h and 144 h after chemotherapy",citrulline content in the PF01 group>that in the PF04 group>that in the Ted group>that in the Model group
same,"Case sections of jejunum: height of villi and number of crypt cells, rank of groups","[4]; FIG. 8, 10th day",the PF01 group>the PF04 group>the Ted group>the control group
same,Serum citrulline content 96 h after the first administration of 5-FU,"[4]; Table 5, 96 h",16.50 µg/mL
same,Serum citrulline content 48 h after the administration of 5-FU,"[4]; Table 7, 48 h",2.04 µg/mL
same,Serum citrulline content 96 h after the administration of 5-FU,"[4]; Table 7, 96 h",3.53 µg/mL
same,Serum citrulline content 144 h after the administration of 5-FU,"[4]; Table 7, 144 h",10.37 µg/mL
same,Serum citrulline content before the administration of 5-FU,"[4]; Table 7, before 5-FU",21.74 µg/mL
same,Body weight before the first administration of 5-FU,"[4]; Ted 1 mg/Kg sc daily 9 days, PF01/PF04 3 mg/Kg sc every three days x3, 5-FU 50 mg/Kg ip day 4-6",272.46 g
same,Body weight 24 h after the first administration of 5-FU,"[4]; same regimen, 24 h",274.36 g
same,Body weight 48 h after the first administration of 5-FU,"[4]; same regimen, 48 h",257.94 g
same,Body weight 72 h after the first administration of 5-FU,"[4]; same regimen, 72 h",260.95 g
same,Body weight 96 h after the first administration of 5-FU,"[4]; same regimen, 96 h",275.43 g
same,half-life in vivo in humans,[5],2 h
same,in vivo half-life in rats,[6]; rats,30 min
"GLP-2(3-33): hydrolyzed, inactive GLP-2(3-33) formed by dipeptidyl peptidase IV (DGSFSDEMNTILDNLAARDFINWLIQTKITD; Glucagon-like peptide 2; UniProt P01275 148-178, looked up, fragment)",half-life in vivo,[6]; cited reference on catabolism in rats,27 min
"PT01: glucagon-like peptide-2 mutant, SEQ ID NO: 1: HGDGSFSDEMNTILDNLAARDFINWLIQTRITDGGGGSK",in vitro activities compared with natural human glucagon-like peptide-2,[7],consistent with the natural human glucagon-like peptide-2
"PT02: glucagon-like peptide-2 mutant, SEQ ID NO: 2: HAibDGSFSDEMNTILDNLAARDFINWLIQTRITDGGGGSK (H[Aib]DGSFSDEMNTILDNLAARDFINWLIQTRITDGGGGSK)",in vitro activities compared with natural human glucagon-like peptide-2,[7],consistent with the natural human glucagon-like peptide-2
same,in vitro cell viability relative to that of Teduglutide,"[7]; text summary of Table 3, Teduglutide as a standard",comparable to that of Teduglutide
"PT03: glucagon-like peptide-2 mutant, SEQ ID NO: 3: HGDGSFSDEMNTILDNLAARDFINWLIQTRITDGGGGSGGGGSK",in vitro activities compared with natural human glucagon-like peptide-2,[7],consistent with the natural human glucagon-like peptide-2
"PT04: glucagon-like peptide-2 mutant, SEQ ID NO: 4: HGDGSFSDEMNTILDNLAARDFINWLIQTHITDGGGGSK",in vitro activities compared with natural human glucagon-like peptide-2,[7],consistent with the natural human glucagon-like peptide-2
"hGLP-2: human glucagon-like peptide-2, SEQ ID NO: 9: HADGSFSDEMNTILDNLAARDFINWLIQTKITD",half-life in vivo in humans,[5],0.12 h
